Data taken from PubChem BioAssay (NCI).
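96-well plates; 48 h exposure; 5 concentrations. Endpoints by linear interpolation between flanking doses. Not reached: highest tested concentration assigned. TGI is the concentration that stops growth completely.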

Legend:
Assay in all cases: growth of human tumour cells (NCI), 48 h
MALME-3M melanoma = tested on: MALME-3M melanoma
RPMI-8226 leukemia = tested on: RPMI-8226 leukemia
SF-268 CNS = tested on: SF-268 CNS
SK-MEL-28 melanoma = tested on: SK-MEL-28 melanoma
UO-31 renal = tested on: UO-31 renal
HOP-62 NSCLC = tested on: HOP-62 NSCLC
OVCAR-3 ovarian = tested on: OVCAR-3 ovarian
K-562 leukemia = tested on: K-562 leukemia
MDA-MB-231 breast = tested on: MDA-MB-231 breast
MDA-MB-435 = tested on: MDA-MB-435

| SMILES | TGI (MALME-3M melanoma) [µM] | TGI (RPMI-8226 leukemia) [µM] | TGI (SF-268 CNS) [µM] | TGI (SK-MEL-28 melanoma) [µM] | TGI (UO-31 renal) [µM] | TGI (HOP-62 NSCLC) [µM] | TGI (OVCAR-3 ovarian) [µM] | TGI (K-562 leukemia) [µM] | TGI (MDA-MB-231 breast) [µM] | TGI (MDA-MB-435) [µM] |
| --- | --- | --- | --- | --- | --- | --- | --- | --- | --- | --- |
| CN1c2ccccc2N(C(=O)c2ccccc2)C(CC(=O)O)c2cccn21 (configuration not stated) | > 100 | > 100 | > 100 | > 100 | > 100 | > 100 | > 100 | > 100 | – | – |
| O=C1c2cn[nH]c2C(c2ccccc2)N1c1ccccc1 (configuration not stated) | > 10 | > 10 | > 10 | > 10 | > 10 | > 10 | > 10 | – | > 10 | > 10 |
| O=C(NC(=S)NC(=O)c1cc(O)c(O)c(O)c1)c1cc(O)c(O)c(O)c1 | – | > 100 | > 100 | 73.9 | 44.1 | – | – | – | 74.1 | 24.7 |
| CC(=O)N1CCn2c1nc1cc(Cl)ccc12 | > 100 | – | > 100 | > 100 | – | 40 | > 100 | > 100 | > 100 | > 100 |
| Cc1nc2c(=S)n(C)ncc2[nH]1 | 69.7 | > 100 | – | > 100 | > 100 | > 100 | > 100 | > 100 | > 100 | > 100 |
| N#C[C@H](c1nc2ccccc2s1)c1nc2ccccc2nc1Cl | > 100 | > 100 | – | > 100 | 52 | 77.1 | 38.9 | – | > 100 | > 100 |
| CC1=NC(=Cc2ccc([N+](=O)[O-])cc2)C(=O)N1n1c(-c2ccccc2)nc2ccccc2c1=O | > 100 | 53.6 | > 100 | > 100 | > 100 | > 100 | – | > 100 | > 100 | > 100 |
| CC1C(c2ccc(Cl)cc2)c2cc3c(cc2OC1N1CCOCC1)OCO3 (configuration not stated) | – | > 100 | > 100 | > 100 | > 100 | > 100 | > 100 | > 100 | – | > 100 |
| COc1ccc(/C=N/n2cnc3[nH]c(C)c(Cc4ccccc4)c3c2=N)cc1 | > 100 | > 100 | > 100 | > 100 | > 100 | > 100 | > 100 | – | > 100 | > 100 |
| COc1cc(C2c3cc4c(cc3OC(N3CCNCC3)C2C)OCO4)cc(OC)c1OC (configuration not stated) | – | 17.3 | > 44.2 | 38.6 | 15.6 | 27.3 | 0.512 | 10.9 | 2.46 | 1.1 |
| CC1(C)C(=O)C(C)(C)C1=S | > 100 | > 100 | > 100 | > 100 | > 100 | > 100 | > 100 | > 100 | – | – |
| COc1ccc(-n2sc3ncccc3c2=O)cc1 | 30.9 | > 100 | 58.3 | 44.3 | 33.7 | 56.7 | 60.8 | – | 45.1 | 66.7 |
| CCCC(CCN)(CCN)[N+](=O)[O-] | > 100 | > 100 | > 100 | – | > 100 | – | – | > 100 | > 100 | > 100 |
